In series [1] the test system is 786-O. As to the kind of experiment: Cytotoxicity in vitro (MTT) in presence/absence of elastase. The class given is cell-based, human. Particulars: 72 h. The method, boiled down: (§1)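 Cells seeded 24 h, then treated in triplicate with compound (10^−5 to 10^−13 M) alone or with 10 nM elastase for 72 h at 37° C. Proliferation by MTT (4 h, overnight detergent lysis, 570 nm), relative to untreated cells as 100%.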

The subject of series [2] is HT29. The series is described as above. Type of series: cell-based, human. Particulars: 72 h. The method, boiled down:
as §1

Series [3] has as its system NCI H292. The description is as above. The following applies: 72 h. Type of series: cell-based, human. The method, boiled down: as §1
Series [4] relates to SUM149. Described as above. The class given is cell-based. Particulars: 72 h. The method, boiled down:
as §1

The test system of series [5] is 786-O. As to the kind of experiment: Cytotoxicity assay (Version 2, automated, AC50) with/without neutrophil elastase. The following applies: Version 2, activity concentration at −50%. Type of series: cell-based, human. The essentials:
(§2)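 Cells were treated in triplicate with compound at 10^−5 M to 10^−13 M, with or without 10 nM elastase, for 72 h at 37 °C. Viability was read by MTT at 570 nm, normalized to cell-free medium (−100%) and DMSO-treated cells (0%); AC50 at −50% from 4-parameter Hill fit.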

For series [6], the system named is HT29. Described as above. Type of series: cell-based, human. Particulars: Version 2, activity concentration at −50%. The method, boiled down:
as §2

The test system of series [7] is NCI H292. The series is described as above. Particulars: NCI H292, with (+) neutrophil elastase, Version 2, activity concentration at −50%. Type of series: cell-based, human. The essentials:
as §2

The test system of series [8] is SUM149. Described as above. The class given is cell-based. The following applies: Version 2, activity concentration at −50%. The method, boiled down: as §2
The conditions of series [9]: 37° C. The procedure:
Method for measurement of stability in rat and human plasma: 1 mg of the test compound was dissolved in 0.5 ml acetonitrile/dimethylsulfoxide 1:1. For complete dissolution the HPLC vial was shaken and sonicated. While vortexing, 20 μl of this solution was added to 1 ml 37° C. warm plasma. After 10 min, 0.5 h, 1 h, 1.5 h, 2 h, and 4 h, the assay was stopped by adding 100 μl of the compound plasma solution to a vial containing 300 μl acetonitrile/buffer pH 3 (80:20) at RT. The mixture was centrifuged at 5000 rpm for 10 minutes. The supernatant was analyzed by HPLC to determine the amount of the test compound and up to two byproducts. To values resulted from a processed sample immediately taken after vortexing with plasma at RT. The peak areas (in percentage) were used for quantification. All data was given as percent area of the initial compound at to. The results of these assays are shown in FIG. 1 and FIG. 2 for rat and human plasma, respectively.

For series [10] the following is noted: buffer pH 7.4, 37° C. The procedure: Method for measurement of stability in buffer: 0.15 mg of the test compound was dissolved in 0.1 ml dimethylsulfoxide and 0.4 ml acetonitrile. For complete dissolution, the HPLC vial with the sample solution was shaken and sonicated. Then 1.0 ml of the respective buffer solution was added, and the sample was vortexed. The sample solution was analysed by HPLC to determine the amount of the test compound and up to two byproducts at a particular time over a period of 24 h at 37° C. […] The peak areas (in percentage) were used for quantification.

[11] abbreviates: without (−) neutrophil elastase.
Setting [12] is: HT29, without (−) neutrophil elastase.
Where [13] appears, read: SUM149, without (−) neutrophil elastase.

Like-named read-outs stand apart in the source and are kept apart here.

Broadly, the IC50 is the point on the concentration scale where inhibition reaches its midpoint. In general, AC50 refers to the concentration at which the activity in the assay is half-maximal. Consider `CCCNC(=O)Nc1cccc(S(=O)(=O)Nc2cccc([C@@H](CC(=O)[O-])NC(=O)Nc3ccc(NC(=O)NCCOCCOCCOCCC(=O)N[C@@H](CC(=O)[O-])C(=O)N4CCC[C@H]4C(=O)N[C@H](C(=O)N=[S@@](C)(=O)Cc4cc5cc(c4)OCCCCOc4cc(F)ccc4-c4nc(ncc4F)N5)C(C)C)cc3)c2)c1.[Na+].[Na+]` [Compound 3], for which the concentration for half-maximal inhibition (IC50) in series [1] (with (+) 10 nM neutrophil elastase) is at most 1 nM; in series [1] (setting [11]), above 100 nM; in series [2] (HT29, with (+) 10 nM neutrophil elastase), at most 1 nM; in series [2] (setting [12]), above 100 nM; in [3] (NCI H292, with (+) 10 nM neutrophil elastase) it was at most 1 nM; in series [3] (NCI H292, without (−) neutrophil elastase) it was above 100 nM. The IC50 in [4] (SUM149, with (+) 10 nM neutrophil elastase) was at most 1 nM; in series [4] (setting [13]) it was above 100 nM. Also, the AC50 in series [5] (with (+) neutrophil elastase) was 11 to 100 nM; in series [5] (setting [11]), above 1000 nM; in series [6] (HT29, with (+) neutrophil elastase), 11 to 100 nM; in [6] (setting [12]), above 1000 nM; in [7], 11 to 100 nM; in series [8] (SUM149, with (+) neutrophil elastase), 11 to 100 nM. The AC50 in series [8] (setting [13]) fell in the range of 100 to 1000 nM. The “time stable in plasma (no significant degradation)” value in [9] (human plasma) and in series [9] (rat plasma) was “at least 4 h” throughout. The “time stable in buffer (no significant degradation)” value in series [10] is “at least 24 h”.

These data come from US20240408222A1, “COMPOUNDS, PHARMACEUTICAL COMPOSITIONS, AND METHODS FOR THE TREATMENT, PREVENTION, OR MANAGEMENT OF HYPERPRO[…]” (VINCERX PHARMA GMBH, priority 2021, published 2024).
